One experiment has as its target T1, human CD38 (Homo sapiens, UniProt P28907).
T1 construct: purchased Bio-Techne GmbH AVI2404
T1 sequence (P28907 1-300): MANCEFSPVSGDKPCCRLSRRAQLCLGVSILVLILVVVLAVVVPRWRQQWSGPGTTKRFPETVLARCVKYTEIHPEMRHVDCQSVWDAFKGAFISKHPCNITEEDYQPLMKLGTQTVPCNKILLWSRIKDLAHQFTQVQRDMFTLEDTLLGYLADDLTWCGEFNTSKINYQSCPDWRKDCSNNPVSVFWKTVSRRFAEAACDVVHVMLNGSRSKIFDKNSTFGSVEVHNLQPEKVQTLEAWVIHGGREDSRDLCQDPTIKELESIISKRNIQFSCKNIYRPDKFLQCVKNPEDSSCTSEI
Kind of experiment: NAD+ cyclase activity assay with human recombinant CD38 protein (ε-NAD fluorescence). The format is biochemical. The following applies: 1.9 nM human CD38, substrate ε-NAD, 30 min preincubation, fluorescence 300/410 nm. The protocol:
(§1) Example 4: NAD^+ Cydase Activity Assay with Human or Mouse Recombinant CD38 Protein
(§2) The following assay was used to determine the ability of compounds of the invention to inhibit the hydrolysis of NAD^+ by the human or mouse enzyme, CD38.
(§3) Reaction buffer: 40 mM HEPES/NaOH pH 7.5, 250 mM sucrose, 0.01% Tween
(§4) Final concentrations: 0.6 nM mouse CD38 (4947-AC, Bio-Techne GmbH) 1.9 nM human CD38 (AVI2404, Bio-Techne GmbH)
(§5) Substrate: […] Nicotinamide 1,N6-ethenoadenine dinucleotide (&-NAD)
(§6) Read-out: Fluorescence intensity (extinction 300 nm/emission 410 nm)
(§7) Required reaction buffer, required CD38 concentration in reaction buffer and required e-NAD concentration in reaction buffer were prepared. Thereafter, 8 μL of CD38 in reaction buffer was added to High Control and compound concentration wells in 384 well plate (Corning #4514, 384 well, nonbinding surface, low volume, round bottom) and 8 μL of reaction buffer to Low Control. Compound dilutions were transferred via pintool technology that transfers 42.5 nL compound dilutions (12-point dose-response with factor three dilutions in 100% DMSO) well-to-well. Plate was subsequently shaken for 15 s at 1450 rpm and sealed for incubation for 30 min at room temperature. Thereafter, 2 μL of e-NAD in reaction buffer were added with Integra Voyager. After shaking for 15 s at 1450 rpm, plate was sealed, and assay signal were measured continuously with PHERAstar® fluorescence intensity module (extinction 300 nm/emission 410 nm).
(§8) Dose-response curves were constructed using twelve-pointfactor three dilutions in triplicates per plate. High control (full enzyme activity) was set to assay signal of CD38 and e-NAD in presence of vehicle (DMSO) and Low control (full enzyme inhibition) was set to assay signal of e-NAD and vehicle (DMSO) in absence of CD38. For data analysis, fluorescent signal of traces corresponding to each compound concentration and High and Low control were monitored over time. Each run, High Control (full enzyme activity) was fitted to Linear equation via GraphPad Prism to determine CD38 activity from the slope and determine the time interval of linear phase of reaction to account for minor fluctuations. Thereafter, slopes of all compound concentrations were determined via fitting to same linear equation (GraphPad Prism) over the same time interval as determined for High control. […] Unless otherwise stated, fitting of curves were fixed to 100%-inhibition and unlocked for 0%-inhibition.

For a further experiment, the target named is T2, mouse CD38 (Mus musculus, UniProt P56528).
T2 construct: purchased Bio-Techne GmbH 4947-AC
T2 sequence (P56528 1-304): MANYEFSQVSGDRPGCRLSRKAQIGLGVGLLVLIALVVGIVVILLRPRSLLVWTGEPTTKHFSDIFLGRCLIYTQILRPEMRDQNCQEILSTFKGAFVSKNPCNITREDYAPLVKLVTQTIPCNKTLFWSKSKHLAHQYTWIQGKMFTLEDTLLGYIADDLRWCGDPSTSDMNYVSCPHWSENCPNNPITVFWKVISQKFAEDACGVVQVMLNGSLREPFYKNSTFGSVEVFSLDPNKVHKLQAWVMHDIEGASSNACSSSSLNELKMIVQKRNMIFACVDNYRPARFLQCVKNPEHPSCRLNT
Kind of experiment: NAD+ cyclase activity assay with mouse recombinant CD38 protein (ε-NAD fluorescence). The format is biochemical. The following applies: 0.6 nM mouse CD38, substrate ε-NAD, 30 min preincubation, fluorescence 300/410 nm. The protocol:
as §1, §2, §3, §4, §5, §6, §7, §8

The values that follow come from patent US20260138990A1, “TRICYCLIC FUSED IMIDAZOLE COMPOUNDS AS CD38 MODULATORS AND USES THEREOF” (AEOVIAN PHARMACEUTICALS, INC., priority 2023, published 2026).

Counter-ions that a name gives are not always drawn.

Consider `O=C(NC1CCC(F)(F)CC1)c1ccc2c(c1)-c1cncn1CCO2` [Compound 5A, N-(4,4-Difluorocyclohexyl)-5,6-dihydrobenzo[f]imidazo[1,5-d][1,4]oxazepine-10-carboxamide], for which the IC50 (in general, the concentration needed to halve the response being measured) was less than 0.03 µM at human CD38 and less than 0.001 µM at mouse CD38.

Consider `O=C(N[C@H]1CCc2ccccc21)c1ccc2c(c1)-c1cncn1CCO2` [Compound 6A, (S)—N-(2,3-Dihydro-1H-inden-1-yl)-5,6-dihydrobenzo[f]imidazo[1,5-d][1,4]oxazepine-10-carboxamide], for which the IC50 is less than 0.03 µM on human CD38 and 0.001 to 0.01 µM at mouse CD38.

With `O=C(Nc1ccc2scnc2c1)c1ccc2c(c1)-c1cncn1CCO2` [Compound 7A, N-(Benzo[d]thiazol-5-yl)-5,6-dihydrobenzo[f]imidazo[1,5-d][1,4]oxazepine-10-carboxamide], the IC50 is less than 0.03 µM on human CD38 and 0.001 to 0.01 µM at mouse CD38.

Turning to `O=C(Nc1ccc2c(c1)OCCO2)c1ccc2c(c1)-c1cncn1CCO2` [Compound 8A, N-(2,3-Dihydrobenzo[b][1,4]dioxin-6-yl)-5,6-dihydrobenzo[f]imidazo[1,5-d][1,4]oxazepine-10-carboxamide], the IC50 was less than 0.03 µM at human CD38 and 0.001 to 0.01 µM on mouse CD38.

As for `O=C(Nc1ccc2c(c1)CCO2)c1ccc2c(c1)-c1cncn1CCO2` [Compound 9A, N-(2,3-Dihydrobenzofuran-5-yl)-5,6-dihydrobenzo[f]imidazo[1,5-d][1,4]oxazepine-10-carboxamide], the IC50 on human CD38 was less than 0.03 µM; at mouse CD38 it was 0.001 to 0.01 µM.

For the compound `O=C(Nc1ccc(C(F)(F)F)nc1)c1ccc2c(c1)-c1cncn1CCO2` [Compound 10A, N-(6-(Trifluoromethyl)pyridin-3-yl)-5,6-dihydrobenzo[f]imidazo[1,5-d][1,4]oxazepine-10-carboxamide], the IC50 at human CD38 is less than 0.03 µM; on mouse CD38 it was 0.001 to 0.01 µM.

Consider `COCCO[C@H]1CC[C@H](NC(=O)c2ccc3[nH]c(=O)c4cncn4c3c2)CC1` [Compound 11A, N-((1r,4r)-4-(2-Methoxyethoxy)cyclohexyl)-4-oxo-4,5-dihydroimidazo[1,5-a]quinoxaline-8-carboxamide], for which the IC50 on human CD38 is more than 1 µM; at mouse CD38, more than 0.1 µM.

As to `O=C(N[C@@H]1CCS(=O)(=O)C1)c1ccc2[nH]c(=O)c3cncn3c2c1` [Compound 12A, (R)—N-(1,1-Dioxidotetrahydrothiophen-3-yl)-4-oxo-4,5-dihydroimidazo[1,5-a]quinoxaline-8-carboxamide], the IC50 is more than 1 µM on human CD38 and more than 0.1 µM on mouse CD38.

Take `O=C(N[C@@H]1CCCOC1)c1ccc2[nH]c(=O)c3cncn3c2c1` [Compound 13A, (R)-4-Oxo-N-(tetrahydro-2H-pyran-3-yl)-4,5-dihydroimidazo[1,5-a]quinoxaline-8-carboxamide]: the IC50 is more than 1 µM at human CD38 and more than 0.1 µM at mouse CD38.

Consider `O=C(N[C@@H]1CCCOC1)c1ccc2c(c1)-n1ccnc1CCO2` [Compound 14A, (R)—N-(Tetrahydro-2H-pyran-3-yl)-4,5-dihydrobenzo[b]imidazo[1,2-d][1,4]oxazepine-9-carboxamide], for which the IC50 on human CD38 is more than 1 µM; on mouse CD38, more than 0.1 µM.

Take `O=C(N[C@@H]1CCCOC1)c1ccc2c(c1)-n1cncc1CCO2` [Compound 15A, (R)—N-(Tetrahydro-2H-pyran-3-yl)-4,5-dihydrobenzo[b]imidazo[1,5-d][1,4]oxazepine-9-carboxamide]: the IC50 was more than 1 µM on human CD38 and more than 0.1 µM on mouse CD38.

`Cn1c(=O)c2cncn2c2cc(C(=O)N[C@@H]3CCCOC3)ccc21` [Compound 16A, (R)-5-Methyl-4-oxo-N-(tetrahydro-2H-pyran-3-yl)-4,5-dihydroimidazo[1,5-a]quinoxaline-8-carboxamide]: the IC50 is more than 1 µM on human CD38 and more than 0.1 µM on mouse CD38.

For `CNC(=O)[C@H]1CC[C@H](NC(=O)c2ccc3c(c2)-c2cncn2CCO3)CC1` [Compound 17A, N-((1r,4r)-4-(Methylcarbamoyl)cyclohexyl)-5,6-dihydrobenzo[f]imidazo[1,5-d][1,4]oxazepine-10-carboxamide], the IC50 at human CD38 is less than 0.03 µM; on mouse CD38, less than 0.001 µM.

For the compound `CS(=O)(=O)c1cccc(NC(=O)c2ccc3c(c2)-c2cncn2CCO3)c1` [Compound 18A, N-(3-(Methylsulfonyl)phenyl)-5,6-dihydrobenzo[f]imidazo[1,5-d][1,4]oxazepine-10-carboxamide], the results for the IC50 on human CD38 and on mouse CD38 were less than 0.03 µM and less than 0.001 µM, respectively.

For `O=C(Nc1ccc2c(c1)CCS2(=O)=O)c1ccc2c(c1)-c1cncn1CCO2` [Compound 19A, N-(1,1-Dioxido-2,3-dihydrobenzo[b]thiophen-5-yl)-5,6-dihydrobenzo[f]imidazo[1,5-d][1,4]oxazepine-10-carboxamide], the IC50 on human CD38 is less than 0.03 µM; at mouse CD38 it was less than 0.001 µM.

For the compound `CO[C@H]1CC[C@H](NC(=O)c2ccc3c(c2)-c2cncn2CCO3)CC1` [Compound 20A, N-((1r,4r)-4-Methoxycyclohexyl)-5,6-dihydrobenzo[f]imidazo[1,5-d][1,4]oxazepine-10-carboxamide], the IC50 on human CD38 was less than 0.03 µM; on mouse CD38, less than 0.001 µM.

For `CS(=O)(=O)c1cc(NC(=O)c2ccc3c(c2)-c2cncn2CCO3)ccc1F` [Compound 21A, N-(4-Fluoro-3-(methylsulfonyl)phenyl)-5,6-dihydrobenzo[f]imidazo[1,5-d][1,4]oxazepine-10-carboxamide], the IC50 at human CD38 was less than 0.03 µM; on mouse CD38, less than 0.001 µM.

As to `CS(=O)(=O)c1cncc(NC(=O)c2ccc3c(c2)-c2cncn2CCO3)c1` [Compound 22A, N-(5-(Methylsulfonyl)pyridin-3-yl)-5,6-dihydrobenzo[f]imidazo[1,5-d][1,4]oxazepine-10-carboxamide], the IC50 on human CD38 was less than 0.03 µM; at mouse CD38 it was 0.001 to 0.01 µM.

Consider `CC(C)(C)OC(=O)N1Cc2ccc(NC(=O)c3ccc4c(c3)-c3cncn3CCO4)cc2C1` [Compound 23A, tert-Butyl 5-(5,6-dihydrobenzo[f]imidazo[1,5-d][1,4]oxazepine-10-carboxamido)isoindoline-2-carboxylate], for which the IC50 on human CD38 was in the range of 0.03 to 0.1 µM; on mouse CD38, 0.01 to 0.1 µM.

`O=C(Nc1ccc2c(c1)CNC2)c1ccc2c(c1)-c1cncn1CCO2` [Compound 24A, N-(Isoindolin-5-yl)-5,6-dihydrobenzo[f]imidazo[1,5-d][1,4]oxazepine-10-carboxamide hydrochloride]: the concentration for half-maximal inhibition (IC50) was in the range of 0.03 to 0.1 µM on human CD38 and 0.01 to 0.1 µM at mouse CD38.

Regarding `CS(=O)(=O)N1Cc2ccc(NC(=O)c3ccc4c(c3)-c3cncn3CCO4)cc2C1` [Compound 25A, N-(2-(Methylsulfonyl)isoindolin-5-yl)-5,6-dihydrobenzo[f]imidazo[1,5-d][1,4]oxazepine-10-carboxamide], the IC50 on human CD38 was less than 0.03 µM; at mouse CD38, 0.001 to 0.01 µM.

Consider `O=C(N[C@@H]1CCCOC1)c1ccc2c(c1)-c1cncn1CCCO2` [Compound 26A, (R)—N-(Tetrahydro-2H-pyran-3-yl)-6,7-dihydro-5H-benzo[b]imidazo[5,1-d][1,5]oxazocine-11-carboxamide], for which the half-inhibitory concentration (IC50) fell in the range of 0.1 to 1 µM on human CD38 and 0.01 to 0.1 µM at mouse CD38.

With `COCCNc1nc2ccc(C(=O)N[C@@H]3CCCOC3)cc2n2cncc12` [Compound 27A, (R)-4-((2-Methoxyethyl)amino)-N-(tetrahydro-2H-pyran-3-yl)imidazo[1,5-a]quinoxaline-8-carboxamide], the IC50 was 0.1 to 1 µM at human CD38 and 0.001 to 0.01 µM on mouse CD38.
